Experimental data reported in doi:10.1101/2025.08.13.670152v1 (biorxiv, 2025).

Molecular target: CHI3L1/galectin-3 (CHI3L1-His and galectin-3-GST) (Homo sapiens, UniProt P36222)
Experiment: AlphaLISA, inhibition of CHI3L1/galectin-3 interaction
Format: biochemical
Details: read-out: % inhibition at 100 μM

Sequence of CHI3L1/galectin-3 (CHI3L1-His and galectin-3-GST) (P36222 22-383): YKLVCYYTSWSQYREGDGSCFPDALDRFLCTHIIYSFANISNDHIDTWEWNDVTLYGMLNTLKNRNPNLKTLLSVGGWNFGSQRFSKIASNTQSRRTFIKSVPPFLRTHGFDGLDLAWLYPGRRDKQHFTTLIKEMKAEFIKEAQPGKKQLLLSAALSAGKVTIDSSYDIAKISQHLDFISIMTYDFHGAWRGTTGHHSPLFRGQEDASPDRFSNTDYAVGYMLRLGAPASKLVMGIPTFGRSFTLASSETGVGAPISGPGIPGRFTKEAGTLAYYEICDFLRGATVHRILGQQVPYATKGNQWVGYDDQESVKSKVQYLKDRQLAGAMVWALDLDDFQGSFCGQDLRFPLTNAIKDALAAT
Sequence of CHI3L1/galectin-3 (CHI3L1-His and galectin-3-GST) (P17931 2-250 partner): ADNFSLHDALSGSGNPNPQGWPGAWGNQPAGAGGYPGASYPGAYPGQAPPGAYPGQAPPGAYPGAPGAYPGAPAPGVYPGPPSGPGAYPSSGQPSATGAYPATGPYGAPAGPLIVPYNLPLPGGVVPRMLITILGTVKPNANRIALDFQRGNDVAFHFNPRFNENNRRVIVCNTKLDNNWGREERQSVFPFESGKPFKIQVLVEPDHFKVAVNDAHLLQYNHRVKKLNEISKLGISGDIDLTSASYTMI

inhibition at 100 µM: 27.5 ± 3.1%
Structure (SMILES): CC(C)c1cccc(-c2ccc3ncn(C)c(=O)c3c2)c1 [3C13]
